The text below walks through data of patent publication US5643958A, “Substituted amide derivatives” (Banyu Pharmaceutical Co., Ltd., priority 1994, dated 1997).

In assay [1] the target is T1, protein-farnesyl transferase (PFT) (Rattus norvegicus, UniProt Q02293+Q04631).
T1 construct: a soluble fraction of rat's brain was fractionated; from tissue; host or cells: rat brain, soluble fraction; 30-50% ammonium sulfate cut, dialysis, Q-Sepharose column
The assay is described as follows: Inhibitory activities against protein-farnesyl transferase (PFT). It is filed as biochemical. To be noted: PFT derived from rat brain; 37° C.; preincubation 10 minutes, reaction 20 minutes; read-out: 50% inhibitory concentrations against PFT activities, IC50. The protocol: PFT was separated in such a manner that a soluble fraction of rat's brain was fractionated by means of 30%-50% saturated ammonium sulfate, further dialyzed and then subjected to column chromatography by Q-cephalose™ (manufactured by Pharmacia) (Reiss et al, Cell, vol. 62, p. 81-88 (1990)).
Measurement of PFT activities was conducted by using, as a prenyl acceptor, H-ras protein or a substance that biotin was added to N-terminal of a peptide corresponding to a 7 amino acid residue at C terminal of K-rasB protein (biotin-added Lys-Thr-Ser-Cys-Val-Ile-Met) and, as a prenyl doner, [^3 H]-labeled farnesylpyrophosphate (FPP) (Reiss et al, Methods: A Companion to a Methods in Enzymology, vol. 1, No. 3, p. 241-245 (1990)).
The [^3 H]-labeled farnesylpyrophosphate (22.5 Ci/mmol) was purchased from New England Nuclear Co. Non-labeled farnesylpyrophosphate was chemically synthesized from ditriethylammonium phosphate, trans-trans-farnesol and trichloroacetonitrile and purified by XAD-2-resin column and diethylaminoethylcellulose (Cornforth et al, Methods in Enzymology, vol. 15, p. 385-390 (1969)).
H-ras protein was expressed in Escherichia coli and purified (Gibbs et al, Proc. Natl. Acad. Sci., vol. 81, p. 5704-5708 (1984)).
The PFT reaction solution containing H-ras protein as the prenyl acceptor was 25 μl, and its composition was 50 mM Hepes pH7.5/50 μM ZnCl2 /5 mM MGCl2 /20 mM KCl/5mM DTT/0.6 μM all trans [^3 H]-farnesylpyrophosphate/25 μM H-ras protein/PFT derived from rat brain (Q-sephalose fraction). The reaction temperature was 37° C., the preincubation time was 10 minutes, and the reaction time was 20 minutes. […]
The enzymatic reaction product containing H-ras protein as the prenyl acceptor, was analyzed by SDS-PAGE (sodium dodecylsulfate/polyacrylamide gel electrophoresis). […]
The measurement of PFT activities using H-ras protein as the prenyl receptor, was also analyzed by a rapid separate method. […]

Assay [2] has as its system farnesyl-modification of Ras protein. The assay can be described thus: Inhibitory activities against farnesyl-modification of Ras protein in NIH3T3 cells transformed by activated ras gene. It is filed as cell-based. To be noted: Mus musculus, 24 hours, read-out: 50% inhibitory concentrations against farnesyl-modification of Ras protein, IC50. Here is the method: Using the compounds of the present invention, inhibitory activities against farnesyl-modification of Ras protein in NIH3T3 cells transformed by activated ras gene, were measured.
The NIH3T3 cells transformed by activated ras gene, were seeded on a culture plate and cultured for 3 days. Then, a compound of the preset invention in a predetermined concentration was added to the culture. In accordance with the method disclosed in J. Biol. Chem., vol. 268, p. 18415 (1993), the cells were cultured for 24 hours and then taken off from the plate, and the cells were dissolved. After centrifugal separation for 5 minutes under 12000 g, the supernatant was used as a cell extract. The cell extract was subjected to SDS polyacrylamide gel electrophoresis to separate farnesyl-modified Ras protein and non-farnesyl-modified Ras protein. The protein on the gel was transferred onto a nitrocellulose membrane, and an anti-Ras protein antibody was reacted as a probe (primary antibody reaction). An anti-primary antibody, a peroxidase inclusion (secondary antibody), was reacted, and then Ras protein was detected by a chemical fluorescence enhancing kit. The proportion of non-farnesyl-modified Ras protein was quantified by a densitometer and taken as the inhibitory activity.
The 50% inhibitory concentrations (IC50 values) of the compounds of the present invention against farnesyl-modification of Ras protein are shown in Table 2.

The test system of a further assay is NIH/ras cells. The assay is described as follows: Antitumor effects to transformed cells (NIH/ras) using active type human Ha-ras, cells transplanted subcutaneously to a nude mouse. It is filed as in vivo. To be noted: once a day day 1 to 6; for Growth inhibition: day 7; for Weight of tumor, Average (g) ± standard deviation: tumor weighed day 7, control 0.22 ± 0.07. An excerpt: (Antitumor effects to transformed cells (NIH/ras) using active type human Ha-ras)
^1) Tumor inoculation: 10^6 cells were transplanted subcutaneousl
^2) Dose: Each dose was intraperitonealy administered once a day from
the first day to the sixth day after the inoculation of the cells.
^3) Weight of tumor: On the seventh day after inoculation of the
cells, the tumors were weighed.
^4) Growth inhibition: (1(average weight of tumor of the treated
group/average weight of tumor of the control group)) × 100
*and **: Statistical analysis by ttest are 5% and 1%, respectively.

Setting [3] is: 10 mg/kg/injection intraperitoneal.

Regarding `C[C@H]([C@H](C/C=C/c1nc2ccccc2o1)c1ccc2c(c1)OCO2)N(Cc1ccc2ccccc2c1)C(=O)CC(C(=O)O)C(CC(=O)O)C(=O)O` (mixture of isomers) [Example 45, 4-[N-{(1RS,2RS,4E)-5-(2-benzoxazolyl)-1-methyl-2-(3,4-methylenedioxyphenyl)-4-pentenyl}-N-(2-naphthylmethyl)carbamoyl]-1,2,3-butanetricarboxylic Acid], the IC50 was 0.15 nM in assay [1] and 7700 nM in assay [2].
In the case of `C[C@H]([C@H](C/C=C/c1nc2ccccc2o1)c1ccc2c(c1)OCO2)N(Cc1ccc2ccccc2c1)C(=O)CC(CC(=O)O)(C(=O)O)C(=O)O` (racemic) [Example 46, 3-[N-{(1RS,2RS,4E)-5-(2-benzoxazolyl)-1-methyl-2-(3,4-methylenedioxyphenyl)-4-pentenyl}-N-(2-naphthylmethyl)-carbamoyl]-1,2,2-propanetricarboxylic Acid], the IC50 in assay [2] is 18000 nM.
`COC(=O)c1ccc([C@H](C/C=C/c2nc3ccccc3o2)[C@H](C)N(Cc2ccc3sccc3c2)C(=O)C[C@@H](CC(=O)O)C(=O)O)cc1` (relative stereo) [Example 34, (2R^*)-2-[N-(5-benzo[b]thienylmethyl)-N-{(1RS,2RS,4E)-5-(2-benzoxazolyl)-2-(4-methoxycarbonylphenyl)-1-methyl-4-pentenyl}carbamoylmethyl]succinic Acid]: in assay [1], the IC50 amounted to 0.53 nM.
In the case of `CC(C(CC=Cc1nc2ccccc2o1)c1ccc2c(c1)OCO2)N(Cc1ccc2ccccc2c1)C(=O)C(O)CCC(=O)O` (stereo not drawn) [Example 59, Sodium 4-[N-{(1RS,2RS,4E)-5-(2-benzoxazolyl)-1-methyl-2-(3,4-methylenedioxyphenyl)-4-pentenyl}-N-(2-naphthylmethyl)]carbamoyl-4-hydroxybutanoate], the IC50 in assay [1] came to 0.46 nM.
As for `C[C@H]([C@H](C/C=C/c1nc2ccccc2o1)c1ccc2c(c1)OCO2)N(Cc1ccc2ccccc2c1)C(=O)C(O)=C(CC(=O)O)C(=O)OC(C)(C)C` [Example 69, 4-[N-{(1R,2R,4E)-5-(2-benzoxazolyl)-1-methyl-2-(3,4-methylenedioxyphenyl)-4-pentenyl}-N-(2-naphthylmethyl)carbamoyl]-3-tert-butoxycarbonyl-4-hydroxy-3-butenoic Acid], the IC50 in assay [2] worked out at 4500 nM. For the same compound, the Growth inhibition in the assay on NIH/ras cells (setting [3]) is given as 23%; with NIH/ras cells (30 mg/kg/injection intraperitoneal), 59%. Besides, the “Weight of tumor, Average (g) ± standard deviation” value was 0.17 ± 0.09 g with NIH/ras cells (setting [3]) and 0.09 ± 0.05 g in the assay with NIH/ras cells (30 mg/kg/injection intraperitoneal, ** t-test 1%).
